Source: ChEMBL document CHEMBL3745696, “Synthesis and cytotoxic activity of novel hexahydropyrrolo[2,3-b]indole imidazolium salts” (Bioorg Med Chem Lett, 2016)

Key:
SW480 [1] = assay: Cytotoxicity against human SW480 cells by MTT assay; format: functional, cell-based
A549 [2] = assay: Cytotoxicity against human A549 cells by MTT assay; format: functional, cell-based
MCF7 [3] = assay: Cytotoxicity against human MCF7 cells by MTT assay; format: functional, cell-based
[4] = Cytotoxicity against human SMMC7721 cells by MTT assay; format: functional, cell-based; conditions: SMMC-7721
[5] = Cytotoxicity against human HL60 cells by MTT assay; format: functional, cell-based; conditions: HL-60
SW480 [6] = assay: Potency index, ratio IC50 of cisplatin to IC50 of compound for cytotoxicity against human SW480 cells; format: functional
[7] = Potency index, ratio IC50 of cisplatin to IC50 of compound for cytotoxicity against human SMMC7721 cells; format: functional, SMMC-7721
A549 [8] = assay: Potency index, ratio IC50 of cisplatin to IC50 of compound for cytotoxicity against human A549 cells; format: functional
MCF7 [9] = assay: Potency index, ratio IC50 of cisplatin to IC50 of compound for cytotoxicity against human MCF7 cells; format: functional

Cc1n(CC(=O)N2CCC3(C)c4ccccc4N(C)C23)c2ccccc2[n+]1CC(=O)c1ccc2ccccc2c1 (centres undefined)
IC50 (SW480 [1]): 10.1 µM
IC50 (A549 [2]): 7.64 µM
IC50 (MCF7 [3]): 9.45 µM
IC50 [4]: 7.09 µM
IC50 [5]: 5.95 µM

Cc1cc2c(cc1C)[n+](Cc1ccc3ccccc3c1)cn2CC(=O)N1CCC2(C)c3ccccc3N(C)C12 (centres undefined)
IC50 (SW480 [1]): 4.54 µM
IC50 (A549 [2]): 6.18 µM
IC50 (MCF7 [3]): 1.84 µM
IC50 [4]: 4.03 µM
IC50 [5]: 1.35 µM

COc1ccc(C(=O)C[n+]2c(C)n(CC(=O)N3CCC4(C)c5ccccc5N(C)C34)c3ccccc32)cc1 (centres undefined)
IC50 (SW480 [1]): > 20 µM
IC50 (A549 [2]): > 20 µM
IC50 (MCF7 [3]): > 20 µM
IC50 [4]: > 20 µM
IC50 [5]: > 20 µM

CN1c2ccccc2C2(C)CCN(C(=O)Cn3cnc4ccccc43)C12 (centres undefined)
IC50 (SW480 [1]): > 20 µM
IC50 (A549 [2]): > 20 µM
IC50 (MCF7 [3]): > 20 µM
IC50 [4]: > 20 µM
IC50 [5]: > 20 µM

Cc1cc2c(cc1C)[n+](Cc1ccccc1Br)cn2CC(=O)N1CCC2(C)c3ccccc3N(C)C12 (centres undefined)
IC50 (SW480 [1]): 7.24 µM
IC50 (A549 [2]): 12.7 µM
IC50 (MCF7 [3]): 6.28 µM
IC50 [4]: 5.61 µM
IC50 [5]: 1.67 µM

Cc1cc2c(cc1C)[n+](CC(=O)c1ccccc1)cn2CC(=O)N1CCC2(C)c3ccccc3N(C)C12 (centres undefined)
IC50 (SW480 [1]): > 20 µM
IC50 (A549 [2]): > 20 µM
IC50 (MCF7 [3]): 13.4 µM
IC50 [4]: > 20 µM
IC50 [5]: 8.03 µM

Cc1n(CC(=O)N2CCC3(C)c4ccccc4N(C)C23)c2ccccc2[n+]1Cc1ccc2ccccc2c1 (centres undefined)
IC50 (SW480 [1]): 7.36 µM
IC50 (A549 [2]): 16.7 µM
IC50 (MCF7 [3]): 5.09 µM
IC50 [4]: 4.34 µM
IC50 [5]: 1.49 µM

Cc1cc2c(cc1C)[n+](Cc1ccccc1Br)cn2CC(=O)N1CCC2(C)c3ccccc3N(Cc3ccccc3)C12.[Br-] (centres undefined)
Ratio IC50 (SW480 [6]): 6.2
IC50 (SW480 [1]): 1.44 µM
IC50 (A549 [2]): 2.68 µM
IC50 (MCF7 [3]): 1.78 µM
Ratio IC50 [7]: 4.7
Ratio IC50 (A549 [8]): 2.6
IC50 [4]: 1.72 µM
IC50 [5]: 1.27 µM

Cc1n(CC(=O)N2CCC3(C)c4ccccc4N(C)C23)c2ccccc2[n+]1Cc1ccccc1Br (centres undefined)
IC50 (SW480 [1]): > 20 µM
IC50 (A549 [2]): > 20 µM
IC50 (MCF7 [3]): 8.95 µM
IC50 [4]: 10.8 µM
IC50 [5]: 3.72 µM

Cc1cc2c(cc1C)[n+](CC(=O)c1ccc(Br)cc1)cn2CC(=O)N1CCC2(C)c3ccccc3N(C)C12 (centres undefined)
IC50 (SW480 [1]): 8.52 µM
IC50 (A549 [2]): > 20 µM
IC50 (MCF7 [3]): 8.28 µM
IC50 [4]: 8.72 µM
IC50 [5]: 7.31 µM

CC12CCN(C(=O)Cn3cnc4ccccc43)C1N(Cc1ccccc1)c1ccccc12 (centres undefined)
IC50 (SW480 [1]): > 20 µM
IC50 (A549 [2]): > 20 µM
IC50 (MCF7 [3]): > 20 µM
IC50 [4]: > 20 µM
IC50 [5]: > 20 µM

Cc1cc2c(cc1C)[n+](CC(=O)c1ccc3ccccc3c1)cn2CC(=O)N1CCC2(C)c3ccccc3N(C)C12 (centres undefined)
IC50 (SW480 [1]): 5.01 µM
IC50 (A549 [2]): 6.47 µM
IC50 (MCF7 [3]): 4.88 µM
IC50 [4]: 2.85 µM
IC50 [5]: 1.6 µM

Cc1cc2ncn(CC(=O)N3CCC4(C)c5ccccc5N(Cc5ccccc5)C34)c2cc1C (centres undefined)
IC50 (SW480 [1]): > 20 µM
IC50 (A549 [2]): > 20 µM
IC50 (MCF7 [3]): > 20 µM
IC50 [4]: > 20 µM
IC50 [5]: > 20 µM

Cc1n(CC(=O)N2CCC3(C)c4ccccc4N(Cc4ccccc4)C23)c2ccccc2[n+]1Cc1ccc2ccccc2c1.[Br-] (centres undefined)
Ratio IC50 (MCF7 [9]): 7.2
IC50 (SW480 [1]): 1.64 µM
IC50 (A549 [2]): 6.26 µM
IC50 (MCF7 [3]): 1.46 µM
IC50 [4]: 1.8 µM
IC50 [5]: 1.38 µM

CC12CCNC1N(Cc1ccccc1)c1ccccc12 (centres undefined)
IC50 (SW480 [1]): > 20 µM
IC50 (A549 [2]): > 20 µM
IC50 (MCF7 [3]): > 20 µM
IC50 [4]: > 20 µM
IC50 [5]: > 20 µM

Cc1ccc(C[n+]2c(C)n(CC(=O)N3CCC4(C)c5ccccc5N(C)C34)c3ccccc32)cc1 (centres undefined)
IC50 (SW480 [1]): > 20 µM
IC50 (A549 [2]): > 20 µM
IC50 (MCF7 [3]): 10.8 µM
IC50 [4]: 8.03 µM
IC50 [5]: 2.25 µM

Cc1n(CC(=O)N2CCC3(C)c4ccccc4N(C)C23)c2ccccc2[n+]1CC(=O)c1ccc(Br)cc1 (centres undefined)
IC50 (SW480 [1]): > 20 µM
IC50 (A549 [2]): > 20 µM
IC50 (MCF7 [3]): > 20 µM
IC50 [4]: > 20 µM
IC50 [5]: > 20 µM

Cc1cc2c(cc1C)[n+](Cc1ccc(Br)cc1)cn2CC(=O)N1CCC2(C)c3ccccc3N(C)C12 (centres undefined)
IC50 (SW480 [1]): 6.9 µM
IC50 (A549 [2]): 17.4 µM
IC50 (MCF7 [3]): 3.08 µM
IC50 [4]: 5.69 µM
IC50 [5]: 1.73 µM

Cc1ccc(C[n+]2cn(CC(=O)N3CCC4(C)c5ccccc5N(C)C34)c3cc(C)c(C)cc32)cc1 (centres undefined)
IC50 (SW480 [1]): 7.57 µM
IC50 (A549 [2]): 10.5 µM
IC50 (MCF7 [3]): 5.79 µM
IC50 [4]: 4.52 µM
IC50 [5]: 1.52 µM

Cc1nc2ccccc2n1CC(=O)N1CCC2(C)c3ccccc3N(C)C12 (centres undefined)
IC50 (SW480 [1]): > 20 µM
IC50 (A549 [2]): > 20 µM
IC50 (MCF7 [3]): > 20 µM
IC50 [4]: > 20 µM
IC50 [5]: > 20 µM

Cc1nc2ccccc2n1CC(=O)N1CCC2(C)c3ccccc3N(Cc3ccccc3)C12 (centres undefined)
IC50 (SW480 [1]): > 20 µM
IC50 (A549 [2]): > 20 µM
IC50 (MCF7 [3]): > 20 µM
IC50 [4]: > 20 µM
IC50 [5]: > 20 µM

COc1ccc(C(=O)C[n+]2cn(CC(=O)N3CCC4(C)c5ccccc5N(C)C34)c3cc(C)c(C)cc32)cc1 (centres undefined)
IC50 (SW480 [1]): 11.1 µM
IC50 (A549 [2]): > 20 µM
IC50 (MCF7 [3]): 8.15 µM
IC50 [4]: 7.49 µM
IC50 [5]: 6.23 µM

CN1c2ccccc2C2(C)CCNC12 (centres undefined)
IC50 (SW480 [1]): > 20 µM
IC50 (A549 [2]): > 20 µM
IC50 (MCF7 [3]): > 20 µM
IC50 [4]: > 20 µM
IC50 [5]: > 20 µM

CN1c2ccccc2C2(C)CCN(C(=O)Cn3ccnc3)C12 (centres undefined)
IC50 (SW480 [1]): > 20 µM
IC50 (A549 [2]): > 20 µM
IC50 (MCF7 [3]): > 20 µM
IC50 [4]: > 20 µM
IC50 [5]: > 20 µM

Cc1nccn1CC(=O)N1CCC2(C)c3ccccc3N(C)C12 (centres undefined)
IC50 (SW480 [1]): > 20 µM
IC50 (A549 [2]): > 20 µM
IC50 (MCF7 [3]): > 20 µM
IC50 [4]: > 20 µM
IC50 [5]: > 20 µM

Cc1nccn1CC(=O)N1CCC2(C)c3ccccc3N(Cc3ccccc3)C12 (centres undefined)
IC50 (SW480 [1]): > 20 µM
IC50 (A549 [2]): > 20 µM
IC50 (MCF7 [3]): > 20 µM
IC50 [4]: > 20 µM
IC50 [5]: > 20 µM

c1c[nH]cn1 [IMIDAZOLE]
IC50 (SW480 [1]): > 20 µM
IC50 (A549 [2]): > 20 µM
IC50 (MCF7 [3]): > 20 µM
IC50 [4]: > 20 µM
IC50 [5]: > 20 µM
